Test results reported in PubChem BioAssay AID1259407 (Chemical Carcinogenesis Research Information System (CCRIS), 2018).
Activity calls are given as the source filed them. How the calls were made is not given here.

System: CCRIS mutagenicity, Ames/micronucleus/aberration tests
Assay: CCRIS mutagenicity studies

COc1cccc2c1cc([N+](=O)[O-])c1c(C(=O)O)cc3c(c12)OCO3
mutagenic call (End Point: IN VITRO CHROMOSOMAL ABERRATIONS, Test System: CHO (WBL) CELLS, Metabolic Activation: NONE): active; positive
mutagenic call (End Point: IN VITRO CHROMOSOMAL ABERRATIONS, Test System: CHO (WBL) CELLS, Metabolic Activation: RAT, LIVER, S-9, AROCLOR 1254): active; positive
mutagenic call (End Point: IN VITRO CHROMOSOMAL ABERRATIONS, Test System: CHO CELLS, Metabolic Activation: NONE): active; positive
mutagenic call (End Point: IN VITRO CHROMOSOMAL ABERRATIONS, Test System: CHO CELLS, Metabolic Activation: S-9): active; positive
mutagenic call (End Point: IN VITRO MICRONUCLEUS, Test System: CHO (WBL) CELLS, Metabolic Activation: RAT, LIVER, S-9, AROCLOR 1254): active; positive
mutagenic call (End Point: IN VITRO MICRONUCLEUS, Test System: CHO CELLS, Metabolic Activation: S-9): active; positive
mutagenic call (End Point: In vitro micronucleus, Test System: Human hepatoma (HepG2) cells, Metabolic Activation: None): active; positive
mutagenic call (Test System: AMES SALMONELLA TYPHIMURIUM, Strain/Indicator: D3052, Metabolic Activation: NONE, Method: STANDARD PLATE): inactive; negative
mutagenic call (Test System: AMES SALMONELLA TYPHIMURIUM, Strain/Indicator: D3052, Metabolic Activation: RAT, LIVER, S-9, PHENOBARBITAL, Method: STANDARD PLATE): inactive; negative
mutagenic call (Test System: AMES SALMONELLA TYPHIMURIUM, Strain/Indicator: G46, Metabolic Activation: NONE, Method: STANDARD PLATE): inactive; negative
mutagenic call (Test System: AMES SALMONELLA TYPHIMURIUM, Strain/Indicator: G46, Metabolic Activation: RAT, LIVER, S-9, PHENOBARBITAL, Method: STANDARD PLATE): inactive; negative
mutagenic call (Test System: AMES SALMONELLA TYPHIMURIUM, Strain/Indicator: TA98(NR), Metabolic Activation: NONE, Method: STANDARD PLATE): inactive; negative
mutagenic call (Test System: AMES SALMONELLA TYPHIMURIUM, Strain/Indicator: TA98, Metabolic Activation: NONE): inactive; negative
mutagenic call (Test System: AMES SALMONELLA TYPHIMURIUM, Strain/Indicator: TA98, Metabolic Activation: NONE, Method: STANDARD PLATE): inactive; negative
mutagenic call (Test System: AMES SALMONELLA TYPHIMURIUM, Strain/Indicator: TA98, Metabolic Activation: RAT, LIVER, S-9, AROCLOR 1254, Method: STANDARD PLATE): active; positive
mutagenic call (Test System: AMES SALMONELLA TYPHIMURIUM, Strain/Indicator: TA98, Metabolic Activation: RAT, LIVER, S-9, CLOPHEN A50): inactive; negative
mutagenic call (Test System: AMES SALMONELLA TYPHIMURIUM, Strain/Indicator: TA98, Metabolic Activation: RAT, LIVER, S-9, PHENOBARBITAL, Method: STANDARD PLATE): active; positive
mutagenic call (Test System: AMES SALMONELLA TYPHIMURIUM, Strain/Indicator: TA100(NR), Metabolic Activation: NONE, Method: STANDARD PLATE): inactive; negative
mutagenic call (Test System: AMES SALMONELLA TYPHIMURIUM, Strain/Indicator: TA100(NR), Metabolic Activation: S-9, Method: STANDARD PLATE): inactive; negative
mutagenic call (Test System: AMES SALMONELLA TYPHIMURIUM, Strain/Indicator: TA100, Metabolic Activation: NONE): active; positive
mutagenic call (Test System: AMES SALMONELLA TYPHIMURIUM, Strain/Indicator: TA100, Metabolic Activation: NONE, Method: STANDARD PLATE): inactive; negative
mutagenic call (Test System: AMES SALMONELLA TYPHIMURIUM, Strain/Indicator: TA100, Metabolic Activation: RAT, LIVER, S-9, AROCLOR 1254, Method: STANDARD PLATE): active; positive
mutagenic call (Test System: AMES SALMONELLA TYPHIMURIUM, Strain/Indicator: TA100, Metabolic Activation: RAT, LIVER, S-9, CLOPHEN A50): active; positive
mutagenic call (Test System: AMES SALMONELLA TYPHIMURIUM, Strain/Indicator: TA100, Metabolic Activation: RAT, LIVER, S-9, PHENOBARBITAL, Method: STANDARD PLATE): active; positive
mutagenic call (Test System: AMES SALMONELLA TYPHIMURIUM, Strain/Indicator: TA100, Metabolic Activation: S-9, Method: STANDARD PLATE): active; positive
mutagenic call (Test System: AMES SALMONELLA TYPHIMURIUM, Strain/Indicator: TA102, Metabolic Activation: NONE, Method: STANDARD PLATE): active; positive
mutagenic call (Test System: AMES SALMONELLA TYPHIMURIUM, Strain/Indicator: TA1535, Metabolic Activation: NONE): inactive; negative
mutagenic call (Test System: AMES SALMONELLA TYPHIMURIUM, Strain/Indicator: TA1535, Metabolic Activation: NONE, Method: STANDARD PLATE): active; positive
mutagenic call (Test System: AMES SALMONELLA TYPHIMURIUM, Strain/Indicator: TA1535, Metabolic Activation: RAT, LIVER, S-9, CLOPHEN A50): inactive; negative
mutagenic call (Test System: AMES SALMONELLA TYPHIMURIUM, Strain/Indicator: TA1535, Metabolic Activation: RAT, LIVER, S-9, PHENOBARBITAL, Method: STANDARD PLATE): active; positive
mutagenic call (Test System: AMES SALMONELLA TYPHIMURIUM, Strain/Indicator: TA1537, Metabolic Activation: NONE): active; positive
mutagenic call (Test System: AMES SALMONELLA TYPHIMURIUM, Strain/Indicator: TA1537, Metabolic Activation: NONE, Method: STANDARD PLATE): active; positive
mutagenic call (Test System: AMES SALMONELLA TYPHIMURIUM, Strain/Indicator: TA1537, Metabolic Activation: RAT, LIVER, S-9, CLOPHEN A50): active; positive
mutagenic call (Test System: AMES SALMONELLA TYPHIMURIUM, Strain/Indicator: TA1537, Metabolic Activation: S-9, Method: STANDARD PLATE): active; positive
mutagenic call (Test System: AMES SALMONELLA TYPHIMURIUM, Strain/Indicator: TA1538, Metabolic Activation: NONE): inactive; negative
mutagenic call (Test System: AMES SALMONELLA TYPHIMURIUM, Strain/Indicator: TA1538, Metabolic Activation: RAT, LIVER, S-9, CLOPHEN A50): inactive; negative
mutagenic call (Test System: AMES SALMONELLA TYPHIMURIUM, Strain/Indicator: TA1978, Metabolic Activation: NONE, Method: STANDARD PLATE): inactive; negative
mutagenic call (Test System: AMES SALMONELLA TYPHIMURIUM, Strain/Indicator: TA1978, Metabolic Activation: RAT, LIVER, S-9, PHENOBARBITAL, Method: STANDARD PLATE): inactive; negative
mutagenic call (Test System: AMES SALMONELLA TYPHIMURIUM, Strain/Indicator: TM677/8-AZAGUANINE, Metabolic Activation: NONE, Method: SUSPENSION/PLATE): active; positive
mutagenic call (Test System: AMES SALMONELLA TYPHIMURIUM, Strain/Indicator: YG1020, Metabolic Activation: NONE, Method: STANDARD PLATE): active; positive
mutagenic call (Test System: AMES SALMONELLA TYPHIMURIUM, Strain/Indicator: YG1021, Metabolic Activation: NONE, Method: STANDARD PLATE): inactive; negative
mutagenic call (Test System: AMES SALMONELLA TYPHIMURIUM, Strain/Indicator: YG1024, Metabolic Activation: NONE, Method: STANDARD PLATE): active; positive
mutagenic call (Test System: AMES SALMONELLA TYPHIMURIUM, Strain/Indicator: YG1025, Metabolic Activation: NONE, Method: STANDARD PLATE): active; positive
mutagenic call (Test System: AMES SALMONELLA TYPHIMURIUM, Strain/Indicator: YG1029, Metabolic Activation: NONE, Method: STANDARD PLATE): active; positive
mutagenic call (Test System: CHINESE HAMSTER OVARY, Strain/Indicator: CHO-K1-BH4 (HGPRT), Metabolic Activation: NONE): active; positive
mutagenic call (Test System: MOUSE LYMPHOMA, Strain/Indicator: L5178Y TK+/TK-, Metabolic Activation: NONE): active; positive
mutagenic call (Test System: MOUSE LYMPHOMA, Strain/Indicator: L5178Y TK+/TK-, Metabolic Activation: RAT, LIVER, S-9, AROCLOR 1254): active; positive
